The IC50 is the midpoint of a concentration-inhibition curve. A low value points to greater potency.

Here are results for 47 molecules from PMC8869358, “High-Throughput Chemical Screening and Structure-Based Models to Predict hERG Inhibition” (Biology, 2022).

Each structure is given as a SMILES string. Counter-ions that a name gives are not always drawn.

The test deals with hERG (Homo sapiens, UniProt Q12809). Put plainly: cell-based. The following applies: (-LOG10(IC50), µM).
hERG, sequence (Q12809 whole entry): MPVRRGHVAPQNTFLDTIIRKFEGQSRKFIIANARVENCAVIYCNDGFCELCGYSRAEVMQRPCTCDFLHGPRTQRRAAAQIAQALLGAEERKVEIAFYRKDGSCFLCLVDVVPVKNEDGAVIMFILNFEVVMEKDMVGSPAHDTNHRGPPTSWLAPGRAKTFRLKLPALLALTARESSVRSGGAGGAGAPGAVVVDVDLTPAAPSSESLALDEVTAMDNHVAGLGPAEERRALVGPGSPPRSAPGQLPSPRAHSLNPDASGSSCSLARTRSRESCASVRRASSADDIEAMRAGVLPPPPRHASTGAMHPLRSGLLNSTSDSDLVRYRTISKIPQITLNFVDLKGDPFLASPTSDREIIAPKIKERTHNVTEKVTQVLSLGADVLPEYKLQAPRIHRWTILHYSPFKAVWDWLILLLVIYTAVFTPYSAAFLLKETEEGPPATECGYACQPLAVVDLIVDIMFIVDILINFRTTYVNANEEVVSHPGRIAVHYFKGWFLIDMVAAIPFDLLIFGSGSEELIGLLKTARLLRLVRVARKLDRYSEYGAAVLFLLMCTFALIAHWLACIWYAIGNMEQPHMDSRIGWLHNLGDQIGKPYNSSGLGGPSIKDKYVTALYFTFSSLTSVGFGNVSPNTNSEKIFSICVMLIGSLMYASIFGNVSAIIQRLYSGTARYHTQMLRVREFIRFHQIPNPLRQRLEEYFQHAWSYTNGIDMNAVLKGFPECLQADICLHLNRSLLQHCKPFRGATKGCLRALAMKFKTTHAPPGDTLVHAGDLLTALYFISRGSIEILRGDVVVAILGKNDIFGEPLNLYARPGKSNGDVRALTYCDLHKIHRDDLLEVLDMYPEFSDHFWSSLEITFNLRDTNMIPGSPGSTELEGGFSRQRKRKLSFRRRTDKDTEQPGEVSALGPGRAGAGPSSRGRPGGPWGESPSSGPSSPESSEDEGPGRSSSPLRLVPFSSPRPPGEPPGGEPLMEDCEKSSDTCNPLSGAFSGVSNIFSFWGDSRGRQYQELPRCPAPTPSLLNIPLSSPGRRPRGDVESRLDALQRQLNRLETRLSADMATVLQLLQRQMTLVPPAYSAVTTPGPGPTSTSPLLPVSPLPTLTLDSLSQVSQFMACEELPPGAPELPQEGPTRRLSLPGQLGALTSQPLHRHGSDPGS
Molecule `CCC(OC(C)=O)C(C[C@H](C)NC)(c1ccccc1)c1ccccc1` (mixture of isomers) [L-Î±lpha-Noracetylmethadol hydrochloride] gave an IC50 of 7.53 µM.

Regarding `COC(=O)C(C)Oc1ccc(Oc2ccc(Cl)cc2Cl)cc1` (racemic) [(+-)-Diclofop-methyl], it took 46.2 µM to reach half-maximal inhibition (IC50). Against the preceding molecule, the IC50 is about 6.1-fold higher.

Take `COC(=O)C1=C(C)NC(C)=C(C(=O)OCCCN2CCC(c3ccccc3)(c3ccccc3)CC2)C1c1cccc([N+](=O)[O-])c1` (racemic) [(+/-) -Niguldipine hydrochloride (1:x)]: half-maximal inhibition (IC50) required 1.25 µM.

Consider `CC(CCc1ccc(O)cc1)NCCc1ccc(O)c(O)c1` (racemic) [DL-Dobutamine], for which half-maximal inhibition (IC50) required 16.9 µM. Against the preceding molecule, the IC50 is about 14-fold higher.

`COC(=O)C1=C(C)NC(C)=C(C(=O)O[C@@H]2CCCN(Cc3ccccc3)C2)[C@@H]1c1cccc([N+](=O)[O-])c1` (racemic) [rac Benidipine hydrochloride] had an IC50 of 12.5 µM.

Turning to `O[C@@H](CNC[C@H](O)[C@H]1CCc2cc(F)ccc2O1)[C@@H]1CCc2cc(F)ccc2O1` (racemic) [rac Nebivolol hydrochloride], half-maximal inhibition (IC50) was put at 2.49 µM. Compared with the last molecule, the IC50 is about 5-fold lower.

For the molecule `N#CC1(N=NC2(C#N)CCCCC2)CCCCC1` [1,1'-Diazene-1,2-diyldicyclohexanecarbonitrile], the IC50 was found to be 43.6 µM. This IC50 lies about 18-fold higher than the previous one.

For `O=[N+]([O-])c1ccc(Oc2ccc([N+](=O)[O-])cc2)cc1` [1,1'-Oxybis(4-nitrobenzene)], the IC50 was 32.8 µM.

As to `C=C(C)C(=O)OCC(CC)(COC(=O)C(=C)C)COC(=O)C(=C)C` [1,1,1-Trimethylolpropane trimethacrylate], the IC50 was 30.2 µM.

`Cc1c([N+](=O)[O-])cc2c(c1[N+](=O)[O-])C(C)(C)CC2(C)C` [1,1,3,3,5-Pentamethyl-4,6-dinitro-2,3-dihydro-1H-indene]: the IC50 was 16.7 µM.

With `BrC1CCC(Br)C(Br)CCC(Br)C(Br)CCC1Br` (centres unmarked) [1,2,5,6,9,10-Hexabromocyclododecane], half-maximal inhibition (IC50) required 19.2 µM.

Regarding `N#CCCC(Br)(C#N)CBr` (centres unmarked) [1,2-Dibromo-2,4-dicyanobutane], the IC50 is 36.7 µM.

Molecule `BrCC(Br)C1CCC(Br)C(Br)C1` (centres unmarked) [1,2-Dibromo-4-(1,2-dibromoethyl)cyclohexane] gave an IC50 of 34.5 µM.

In the case of `Clc1cc(Cl)c2c(c1)N=C1CCCCCN1C2` [1,3-Dichloro-6,7,8,9,10,12-hexahydroazepino[2,1-b]quinazoline hydrochloride (1:1)], it took 12.5 µM to reach half-maximal inhibition (IC50).

`CCCCCCCCCCn1cc[n+](CCCCCCCCCC)c1C` [1,3-Didecyl-2-methylimidazolium chloride] gave an IC50 of 0.51 µM.

Molecule `Nc1ccc(C(=O)OCCCOC(=O)c2ccc(N)cc2)cc1` [1,3-Propanediol, bis(4-aminobenzoate)] showed an IC50 of 12.3 µM.

Consider `ClC(Cl)(Cl)c1ccc(C(Cl)(Cl)Cl)cc1` [1,4-Bis(trichloromethyl)benzene], for which the midpoint of inhibition, the IC50, lay at 14.2 µM.

Take `Clc1cnc(Oc2ccc(Oc3ncc(Cl)cc3Cl)cc2)c(Cl)c1` [1,4-Bis[2-(3,5-dichloropyridyloxy)]benzene]: the IC50 is 17.4 µM.

For `O=C1C=CC(=O)c2ccccc21` [1,4-Naphthoquinone], the half-inhibitory concentration (IC50) is 21 µM. This IC50 and that of the molecule before are within 1.5-fold of each other.

For `O=C1Cc2ccccc2N1c1c(Cl)cccc1Cl` [1-(2,6-Dichlorophenyl)-2-indolinone], the IC50 is 21.9 µM.

In turn, `Clc1ccc(C(c2ccccc2Cl)C(Cl)Cl)cc1` (centres unmarked) [1-(2-Chlorophenyl)-1-(4-chlorophenyl)-2,2-dichloroethane] gave an IC50 of 21.9 µM.

The molecule `CC(=O)OC1(c2ccccc2)CCN(CCc2ccccc2)CC1` [1-(2-Phenylethyl)-4-phenyl-4-acetoxypiperidine] showed an IC50 of 22.4 µM.

`ClCCCN1CCN(c2cccc(Cl)c2)CC1` [1-(3-Chlorophenyl)-4-(3-chloropropyl)piperazine hydrochloride] showed a 50% inhibitory concentration (IC50) of 10.1 µM. This IC50 is about 2.2-fold lower than that of the molecule before.

On to `CC(C)(C)C(=O)C=Cc1ccc(Cl)cc1` [1-(4-Chlorophenyl)-4,4-dimethylpent-1-en-3-one], for which it took 43.6 µM to reach half-maximal inhibition (IC50).

The molecule `COc1ccc(C(=O)CC(=O)c2ccc(C(C)(C)C)cc2)cc1` [1-(4-tert-Butylphenyl)-3-(4-methoxyphenyl)propane-1,3-dione] showed an IC50 of 21.3 µM.

Consider `Fc1ccc(C(c2ccc(F)cc2)N2CCNCC2)cc1` [1-(Bis(4-fluorophenyl)methyl)piperazine], for which the concentration for half-maximal inhibition (IC50) was 19.7 µM.

Regarding `CCCC[n+]1ccc(C)cc1` [1-Butyl-4-methylpyridinium chloride], the IC50 amounted to 43.4 µM.

As for `CCCCCCCCCCn1cc[n+](C)c1` [1-Decyl-3-methylimidazolium bromide], the IC50 is 15 µM. This IC50 is about 2.9-fold lower than that of the molecule before.

In the case of `CCCCCCCCCCn1cc[n+](C)c1` [1-Decyl-3-methylimidazolium chloride], the midpoint of inhibition, the IC50, lay at 16.7 µM.

Molecule `CCCCCCCCCCn1cc[n+](C)c1` [1-Decyl-3-methylimidazolium hexafluorophosphate] gave an IC50 of 8.37 µM.

For `CCCCCCCCCCn1cc[n+](C)c1` [1-Decyl-3-methylimidazolium trifluoromethanesulfonate], the IC50 was 13.6 µM.

In turn, `CCCCCCCCCCCCn1cc[n+](C)c1` [1-Dodecyl-3-methylimidazolium chloride] showed a half-maximal inhibitory concentration (IC50) of 2.87 µM. This IC50 is about 4.7-fold lower than that of the molecule before.

The molecule `CCCCCCCCCCCCn1cc[n+](C)c1` [1-Dodecyl-3-methylimidazolium hexafluorophosphate] gave a half-inhibitory concentration (IC50) of 4.2 µM.

In the case of `CCCCCCCCCCCCn1cc[n+](C)c1` [1-Dodecyl-3-methylimidazolium iodide], it took 10.6 µM to reach half-maximal inhibition (IC50).

Consider `CCCCCCCCCCCCn1cc[n+](C)c1` [1-Dodecyl-3-methylimidazolium tetrafluoroborate], for which the half-inhibitory concentration (IC50) is 4.04 µM.

On to `CCCCCCCCCCCCn1cc[n+](C)c1` [1-Dodecyl-3-methylimidazolium trifluoromethanesulfonate], for which the half-maximal inhibitory concentration (IC50) is 4.61 µM.

`CC[N+]1(C)CCCC1` [1-Ethyl-1-methylpyrrolidinium iodide] showed a half-maximal inhibitory concentration (IC50) of 19.5 µM. This IC50 is about 4.2-fold higher than that of the molecule before.

`CCCCCCCCCCCCCCCCn1cc[n+](C)c1` [1-Hexadecyl-3-methylimidazolium chloride] gave an IC50 of 14.1 µM.

The molecule `CCCCCCCCCCCCCCCCn1cc[n+](C)c1` [1-Hexadecyl-3-methylimidazolium tetrafluoroborate] showed an IC50 of 9.86 µM.

For `CCCCCC[n+]1ccn(C)c1.O=S(=O)([N-]S(=O)(=O)C(F)(F)F)C(F)(F)F` [1-Hexyl-3-methylimidazolium bis(trifluoromethylsulfonyl)imide], the concentration for half-maximal inhibition (IC50) is 45.4 µM.

In turn, `CCCCCCn1cc[n+](C)c1` [1-Hexyl-3-methylimidazolium tetrafluoroborate] gave an IC50 of 60.6 µM. This IC50 and that of the molecule before are within 1.5-fold of each other.

The molecule `CCCCCCCCCCCCCCCCCC[n+]1ccn(C)c1` [1-Methyl-3-octadecylimidazolium hexafluorophosphate] had an IC50 of 4.02 µM.

Regarding `CCCCCCCC[n+]1ccn(C)c1` [1-Methyl-3-octylimidazolium chloride], the IC50 is 19.4 µM. Against the preceding molecule, the IC50 is about 4.8-fold higher.

The molecule `CCCCCCCC[n+]1ccn(C)c1` [1-Methyl-3-octylimidazolium hexafluorophosphate] gave an IC50 of 17.6 µM.

On to `CCCCCCCC[n+]1ccn(C)c1` [1-Methyl-3-octylimidazolium trifluoromethanesulfonate], for which half-maximal inhibition (IC50) required 21.2 µM.

Molecule `Cc1cccc(Oc2ccccc2)c1` [1-Methyl-3-phenoxybenzene] showed an IC50 of 23.9 µM.

`CCCCCCCCCCCCCCn1cc[n+](C)c1` [1-Methyl-3-tetradecylimidazolium chloride] had an IC50 of 8.62 µM.
